{"source": "patent US10538496B2", "about": "“Methods using HDAC11 inhibitors” (FORMA Therapeutics, Inc., priority 2016, dated 2020)", "key": {"HEL 92.1.7 cells": {"tested_on": "HEL 92.1.7 cells", "test": "Cell proliferation assay (CCK8)", "assay_type": "cell-based", "details": "48h", "method": "(§1) This example describes inhibition of in vitro cell proliferation with exemplary HDAC11 inhibitors. The effects of selective HDAC11 inhibitors on cell proliferation were measured in cell lines containing the MPN-associated mutations MPL W515L (Ba/F3 MPL W515L) and JAK2 V617F (Ba/F3 JAK2 V617F, HEL 92.1.7, SET-2). HEL 92.1.7 and SET-2 cells were purchased from the ATCC and DSMZ, respectively. Ba/F3 cells overexpressing either MPLW515L or JAK2V617F, which were cytokine independent, were generated by transforming Ba/F3 cells with retroviruses overexpressing either MPL W515L or JAK2V617F. For survival assays, cells were seeded in 96-well plates at the density of 0.1 million/ml with addition of indicated compounds and incubated at 37° C. for 48h. CCK8 solution (Dojindo, Rockville, Md.) was added and absorbance at 450 nm was measured after 3 hours of incubation. Readings were normalized to dimethylsulfoxide (DMSO)-treated wells."}, "SET-2 cells": {"tested_on": "SET-2 cells", "test": "Cell proliferation assay (CCK8)", "assay_type": "cell-based", "details": "FIG. 4 legend", "method": "as §1"}}}
{"smiles": "N#CC[C@H](C1CCCC1)n1cc(-c2ncnc3[nH]ccc23)cn1", "note": "[ruxolitinib, reference compound]", "values": [{"measurement": "growth of the HEL 92.1.7 cell line", "setting": "HEL 92.1.7 cells", "value": "inhibited"}, {"measurement": "growth of SET-2 cell line", "setting": "SET-2 cells", "value": "inhibited"}]}
